Experimental data as given in paper PMC5381078, “Carboxylate derivatives of tributyltin (IV) complexes as anticancer and antileishmanial agents” (DARU Journal of Pharmaceutical Sciences, 2017).
In brackets after ≈: the same amount, converted by molar mass. Numbered stars: 1 amine (or outer) side, 2 acyl side, 3 side chain; on linkers, the order of the positions; unused ones are H or OH. Bridge positions count the residues as written; N and C are the ends. Square brackets hold non-standard residues; d marks the D form. Peptide text beside a SMILES is read from it. X1 = CC(C)CCCCCCCCC[C@H](CC(=O)[*:1])O[*:2]

Experiments:
HepG2 cell line = test: Cytotoxicity against HepG2 cell line (SRB assay); format: cell-based, human; details: for HepG2 % growth inhibition: 20 μg/mL
Method: Cytotoxicity was further evaluated against HepG2 cell line by sulforhodamine B (SRB) colorimetric assay. Dulbecco's Modified Eagle Medium (DMEM) supplemented with 10% FBS, 100 μg/mL streptomycin sulfate, 100 IU/mL penicillin G sodium and 0.25 μg/mL amphotericin B was used to culture HepG2 cells in CO2 (5%) incubator (Panasonic, Japan MCO-18 AC-PE) at 37 °C. An aliquot of 20 μL (1% DMSO in PBS) of samples was added to 180 μL of cell culture at an assay density of 1x10^5 cells/mL in 96-well plate. The plate was incubated at 37 °C for 72 h in CO2 incubator. Final concentration of compounds/standard was 20 μg/mL. Doxorubicin and 1% v/v DMSO in PBS ere used as positive and negative controls respectively. An equivalent number of cells in twelve wells of 96-well plate were incubated for 1 h at 37 °C and labeled as day zero control. Later, cells were fixed by adding 50 μL of cold 20% w/v TCA for 1 h at 4 °C. These were washed with tap water, air dried and stained with 50 μL of 0.057% w/v SRB in 1% v/v acetic acid for 30 min at room temperature. Cells were again washed with 1% v/v acetic acid, dried overnight and 200 μL of 10 mM Tris base (pH 10) was used to solubilize the bound dye for 1 h. Absorbance was measured at 515 nm using a microplate reader. Percentage of growth inhibition was calculated as: % inhibition = 100 – [(As – Ao) / (An – Ao) × 100], where, Ao, As and An are absorbance of day zero control, samples and negative control respectively. IC50 values were determined using 3-fold dilutions of the samples.

isolated lymphocytes = test: Cytotoxicity against isolated lymphocytes (MTT assay); format: cell-based, human; details: 24 h
Method: Lymphocytes were isolated using previously described protocol with some modifications. Informed consent was obtained from volunteers and procedure was conducted according to international ethical guidelines after gaining approval from the ethical committee of the Quaid-i-Azam University. A volume of 3 mL of blood was obtained from a healthy donor by venipuncture and diluted (1:1) with PBS. It was layered over 2 mL Histopaque-1077 and centrifuged at 800 × g for 20 min. The buffy coat was aspirated into 5 mL of PBS and centrifuged at […] for 4 min to pellet the lymphocytes. The pellet was suspended in 1 mL of RPMI-1640 and cell density was adjusted to get 1 × 10^5 cells/mL. For cytotoxicity determination, 20 μL of samples (20 μg/mL) or vincristine or 1% DMSO in PBS and 180 μL of lymphocyte suspension were incubated in 96-well plate at 37 °C for 24 h in humidified 5% carbon dioxide incubator (Panasonic, Japan MCO-18 AC-PE). Phytohaemagglutinin (PHA) was added in medium to stimulate lymphocyte growth. Afterwards, MTT assay was done as described above. IC50 values were determined using 3-fold dilutions of the samples.

[1] = system: promastigotes of Leishmania tropica kwh 23; test: Antileishmanial activity (MTT assay); format: cell-based; details: 72 h; for Antileishmanial % growth inhibition (mortality, lethality): 20 μg/mL; for Antileishmanial LC50: MTT
Method: Antileishmanial activity against the promastigotes of Leishmania tropica kwh 23 was evaluated by a quantitative colorimetric assay using 3-(4,5-dimethylthiazol-2-yl)-2, 5-diphenyl tetrazolium bromide (MTT) with minor modifications. […] […] Negative control wells contained 1% DMSO in PBS. All samples were run in triplicate. Afterwards, plates were incubated for 4 h at 24 °C with 20 μL of MTT (4 mg/mL in distilled water) to determine the cell viability. Supernatant from each well was carefully removed leaving behind formazan crystals. Colored formazan crystals were dissolved in 100 μL of DMSO by setting those aside for 1 h to ensure complete dissolution. Cell viability was estimated by measuring absorbance at 540 nm using microplate reader and percentage growth inhibition was calculated.

[2] = system: Leishmania tropica kwh 23 promastigotes; test: Photosensitizing effect against leishmania; format: cell-based; details: for Photosensitizing effect % growth inhibition, Sunlight with IR filter: 15 min; for Photosensitizing effect % growth inhibition, Sunlight: 15 min sunlight
Method: Photosensitizing effect of tributyltin (IV) compounds was determined in three parallel groups. Samples and controls were exposed for 15 min to sunlight (168 W/m^2 of sun intensity) or sunlight with IR filter or dark conditions. The relative intensity of sunlight was measured by a CCD spectrometer (Ocean Optics, model HR4000). Later, plates were incubated at 25 °C for 72 h and cell viability was determined by MTT assay as given above. In this assay, samples were tested at concentrations showing less than 55% inhibition in primary antileishmanial assay to exclude false positive.

Streptomyces 85E = test: Protein kinase inhibition assay (Streptomyces disc assay); format: cell-based; details: for MIC for PK inhibition: minimum inhibitory concentration
Method: Protein kinase inhibitory activity of the tributyltin (IV) compounds was measured against Streptomyces 85E strain using previously described protocol. Culture of Streptomyces 85E was refreshed in tryptic soy broth and 100 μL of this was swabbed on sterile ISP4 medium under aseptic conditions. […] Diameter (mm) of zone of inhibition (ZOI) around all samples and controls was measured as clear zone (CZ) and bald zone (BZ). […] BZ is indicative of PK inhibition.

THP-1 cell line = test: Cytotoxicity against THP-1 cell line (MTT assay); format: cell-based, human; details: 72 h; for THP-1 % growth inhibition: 20 μg/mL
Method: Cytotoxicity of tributyltin (IV) compounds against THP-1 cell line was determined by 3-(4,5-dimethylthiazol-2-yl)-2,5-diphenyl tetrazolium bromide (MTT) assay. THP-1 cells were cultured in complete growth medium comprising RPMI-1640 (pH 7.4) supplemented with 2.2 g/L NaHCO3 and 10% v/v heat inactivated fetal bovine serum (HIFBS). An aliquot of 20 μL of samples in 1% DMSO in PBS and 180 μL of THP-1 cells were mixed in 96-well plate. Cells were added at an assay density of 1 × 10^4 cells/mL whereas sample/standard was added to achieve the final concentration of 20 μg/mL. The plate was incubated at 37 °C for 72 h in humidified 5% carbon dioxide incubator (Panasonic, Japan MCO-18 AC-PE). Vincristine and 1% DMSO in PBS were used as positive and negative controls respectively. After incubation, 20 μL of pre-filter sterilized MTT solution (4 mg/mL in distilled water) was added in plates and incubated for 4 h at 37 °C in CO2 incubator. Later, colored formazan crystals were separated by removing supernatant and dissolved in 100 μL of DMSO. Reaction was allowed to stand for 1 h to ensure complete dissolution and absorbance was measured at 540 nm using microplate reader (Biotech USA, Elx 800).

[3] = 6.25 μg/disc, BZ indicative of PK inhibition
[4] = 50 μg/disc, BZ indicative of PK inhibition, (-) shows no ZOI

Compound	HepG2 % growth inhibition (HepG2 cell line; 72 h)	HepG2 IC50 (HepG2 cell line; 72 h, 3-fold dilutions)	Antileishmanial % growth inhibition (mortality, lethality) [1]	Antileishmanial LC50 [1]	Photosensitizing effect % growth inhibition, Control ([2]; 0.092 μg/mL)	Photosensitizing effect % growth inhibition, Dark ([2]; 0.092 μg/mL)	Photosensitizing effect % growth inhibition, Sunlight with IR filter ([2]; 0.092 μg/mL)	Photosensitizing effect % growth inhibition, Sunlight ([2]; 0.092 μg/mL)	ZOI BZ (bald zone) (Streptomyces 85E; [3])	ZOI CZ (clear zone) (Streptomyces 85E; 50 μg/disc, (-) shows no ZOI)	MIC for PK inhibition (Streptomyces 85E)	THP-1 % growth inhibition (THP-1 cell line)	Isolated lymphocytes % growth inhibition (isolated lymphocytes; 20 μg/mL)	ZOI CZ (clear zone) (Streptomyces 85E; 6.25 μg/disc, (-) shows no ZOI)	further results
COc1cccc2c1C(=O)c1c(O)c3c(c(O)c1C2=O)C[C@@](O)(C(=O)CO)C[C@@H]3O[C@H]1C[C@H](N)[C@H](O)[C@H](C)O1 [Doxorubicin, reference compound]	–	–	–	–	–	–	–	–	–	–	–	–	–	–	inhibition at 20 µg/mL (HepG2 cell line; Homo sapiens, HepG2, 20 μg/mL, 72 h, read-out: HepG2 % growth inhibition): 97.2 ± 1.14%; IC50 (HepG2 cell line; Homo sapiens, HepG2, 72 h, 3-fold dilutions): 5.36 ± 0.75 µg/mL (≈ 9.86 µM)
CCC[CH2][Sn]([CH2]CCC)([CH2]CCC)[O]C(=O)/C=C\C(=O)Nc1cccc(C)c1C [Ch-459, tributylstannyl (Z)-4-((2,3-dimethylphenyl)amino)-4-oxobut-2-enoate]	96.5 ± 4.66 %	0.62 ± 0.005 µg/mL	97.9 ± 3.99 %	0.323 ± 0.002 µg/mL	20.1 ± 0.59%	22.7 ± 1.05%	30.14 ± 1.47%	25.5 ± 1.75%	30 ± 0.24 mm	35 ± 0.99 mm	0.391 ± 0.004 μg/disc	–	–	–	Isolated lymphocytes IC50 (isolated lymphocytes): 5.78 ± 0.34ǂ μg/mL
CCC[CH2][Sn]([CH2]CCC)([CH2]CCC)[O]C(=O)/C=C\C(=O)Nc1ccc(C(=O)OCC)cc1 [Ch-431, ethyl (Z)-4-(4-oxo-4-((tributylstannyl)oxy)but-2-enamido)benzoate]	96.2 ± 2.23 %	5.48 ± 0.16 µg/mL	97.5 ± 2.75 %	0.078 ± 0.002 µg/mL	50.7 ± 1.25%	51.5 ± 1.35%	47.5 ± 0.99%	53.2 ± 1.55%	26 ± 0.16 mm	31 ± 0.78 mm	0.049 ± 0.002 μg/disc	42.7 ± 1.13%	10.7 ± 1.17ǂ %	10 ± 0.33 mm	ZOI BZ (bald zone) (Streptomyces 85E; [4]): 33 ± 1.15 mm
CCC[CH2][Sn]([CH2]CCC)([CH2]CCC)[O]C(=O)/C=C\C(=O)Nc1ccccc1 [Ch-458, tributylstannyl (Z)-4-oxo-4-(phenylamino)but-2-enoate]	98.7 ± 3.56 %	1.58 ± 0.07 µg/mL	97.8 ± 1.23 %	0.256 ± 0.064 µg/mL	35.2 ± 1.78%	36.7 ± 0.74%	30.25 ± 0.17%	42.7 ± 1.35%	31 ± 1.37 mm	30 ± 1.2 mm	0.195 ± 0.001 μg/disc	21.2 ± 1.57%	14.8 ± 0.13ǂ %	12 ± 1.25 mm	–
CC(C)CCCCCCCCC[C@@H]1CC(=O)N[C@@H](CCC(=O)O)C(=O)N[C@@H](CC(C)C)C(=O)N[C@H](CC(C)C)C(=O)N[C@@H](C(C)C)C(=O)N[C@@H](CC(=O)O)C(=O)N[C@H](CC(C)C)C(=O)N[C@@H](CC(C)C)C(=O)O1 [Surfactin, reference compound] (EL[dL]VD[dL]L; linker N-C via X1)	–	–	–	–	–	–	–	–	–	–	–	–	–	–	ZOI BZ (bald zone) (Streptomyces 85E; Surfactin positive control, printed 10 μg/mL): 23 ± 1.98 mm
CCC[CH2][Sn]([CH2]CCC)([CH2]CCC)[O]C(=O)COc1ccc(OCC(=O)[O][Sn]([CH2]CCC)([CH2]CCC)[CH2]CCC)cc1 [Ch-409, bis(tributylstannyl) 2,2’-(1,4-phenylenebis(oxy))diacetate]	99.5 ± 3.15 %	0.08 ± 0.001 µg/mL	97.5 ± 1.98 %	0.954 ± 0.158 µg/mL	–	–	–	–	30 ± 1.17 mm	30 ± 1.75 mm	0.781 ± 0.002 μg/disc	19.4 ± 1.41%	–	12 ± 0.19 mm	Isolated lymphocytes IC50 (isolated lymphocytes): 15.18 ± 0.75ǂ μg/mL; Photosensitizing effect % growth inhibition, Control ([2]; 0.55 μg/mL): 52.05 ± 1.98%; Photosensitizing effect % growth inhibition, Dark ([2]; 0.55 μg/mL): 56.9 ± 0.02%; Photosensitizing effect % growth inhibition, Sunlight with IR filter ([2]; 0.55 μg/mL): 47.5 ± 1.56%; Photosensitizing effect % growth inhibition, Sunlight ([2]; 0.55 μg/mL): 57.63 ± 1.99%; ZOI BZ (bald zone) (Streptomyces 85E; [4]): 31 ± 1.5 mm
CCC[CH2][Sn]([CH2]CCC)([CH2]CCC)[O]C(=O)c1ccccc1C(=O)Nc1cccc2ccccc12 [Ch-450, tributylstannyl 2-(naphthalene-1-ylcarbamoyl)benzoate]	98.5 ± 1.85 %	2.81 ± 0.34 µg/mL	97.4 ± 1.35 %	0.361 ± 0.017 µg/mL	24.5 ± 1.63%	26.34 ± 0.15%	20.7 ± 0.43%	32.12 ± 1.28%	28 ± 2.5 mm	32 ± 1.13 mm	0.195 ± 0.001 μg/disc	–	11.7 ± 0.05ǂ %	–	–
CC[C@]1(O)C[C@H]2CN(CCc3c([nH]c4ccccc34)[C@@](C(=O)OC)(c3cc4c(cc3OC)N(C=O)[C@H]3[C@@](O)(C(=O)OC)[C@H](OC(C)=O)[C@]5(CC)C=CCN6CC[C@]43[C@@H]65)C2)C1 [Vincristine, reference compound]	–	–	–	–	–	–	–	–	–	–	–	–	–	–	inhibition at 20 µg/mL (THP-1 cell line; Homo sapiens, THP-1, 20 μg/mL, read-out: THP-1 % growth inhibition): 100%; inhibition at 20 µg/mL (isolated lymphocytes; Homo sapiens, Lymphocyte, 20 μg/mL, read-out: Isolated lymphocytes % growth inhibition): 76.3 ± 3.65%; IC50 (isolated lymphocytes; Homo sapiens, Lymphocyte): 6.66 ± 0.09 µg/mL (≈ 8.07 µM)
